Measured values: article PMC9653409, “Generative deep learning enables the discovery of a potent and selective RIPK1 inhibitor” (Nature Communications, 2022)

Assays:
Test in all cases: Kinase inhibitory activity profiling of RI-962@10 µM (406 kinases, Eurofins)
Type in all cases: biochemical
[1] = biological target: panel of human kinases (kinase named in endpoint) (Homo sapiens, UniProt P10721, D816H); settings: 10 µM; read-out: Activity (%), cKit(D816H)(h)
Summary of the method: (§1)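 Radiometric filter-binding kinase assays: enzyme preincubated 15 min with compound in 8 mM MOPS pH 7.0, 0.2 mM EDTA, 250 μM peptide substrate, 10 mM magnesium acetate, 10 μM [γ-33P]-ATP. Reaction started with Mg/ATP, run 40 min at room temperature, stopped with phosphoric acid; 33P incorporation read by scintillation counting. Other kinases by similar protocols.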

[2] = biological target: panel of human kinases (kinase named in endpoint) (Homo sapiens, UniProt P43405); settings: 10 µM; read-out: Activity (%), Syk(h)
Summary of the method: as §1

[3] = biological target: panel of human kinases (kinase named in endpoint) (Homo sapiens, UniProt Q07912); settings: 10 µM; read-out: Activity (%), ACK1(h)
Sequence of panel of human kinases (kinase named in endpoint) (Homo sapiens, UniProt Q07912) (Q07912 whole entry): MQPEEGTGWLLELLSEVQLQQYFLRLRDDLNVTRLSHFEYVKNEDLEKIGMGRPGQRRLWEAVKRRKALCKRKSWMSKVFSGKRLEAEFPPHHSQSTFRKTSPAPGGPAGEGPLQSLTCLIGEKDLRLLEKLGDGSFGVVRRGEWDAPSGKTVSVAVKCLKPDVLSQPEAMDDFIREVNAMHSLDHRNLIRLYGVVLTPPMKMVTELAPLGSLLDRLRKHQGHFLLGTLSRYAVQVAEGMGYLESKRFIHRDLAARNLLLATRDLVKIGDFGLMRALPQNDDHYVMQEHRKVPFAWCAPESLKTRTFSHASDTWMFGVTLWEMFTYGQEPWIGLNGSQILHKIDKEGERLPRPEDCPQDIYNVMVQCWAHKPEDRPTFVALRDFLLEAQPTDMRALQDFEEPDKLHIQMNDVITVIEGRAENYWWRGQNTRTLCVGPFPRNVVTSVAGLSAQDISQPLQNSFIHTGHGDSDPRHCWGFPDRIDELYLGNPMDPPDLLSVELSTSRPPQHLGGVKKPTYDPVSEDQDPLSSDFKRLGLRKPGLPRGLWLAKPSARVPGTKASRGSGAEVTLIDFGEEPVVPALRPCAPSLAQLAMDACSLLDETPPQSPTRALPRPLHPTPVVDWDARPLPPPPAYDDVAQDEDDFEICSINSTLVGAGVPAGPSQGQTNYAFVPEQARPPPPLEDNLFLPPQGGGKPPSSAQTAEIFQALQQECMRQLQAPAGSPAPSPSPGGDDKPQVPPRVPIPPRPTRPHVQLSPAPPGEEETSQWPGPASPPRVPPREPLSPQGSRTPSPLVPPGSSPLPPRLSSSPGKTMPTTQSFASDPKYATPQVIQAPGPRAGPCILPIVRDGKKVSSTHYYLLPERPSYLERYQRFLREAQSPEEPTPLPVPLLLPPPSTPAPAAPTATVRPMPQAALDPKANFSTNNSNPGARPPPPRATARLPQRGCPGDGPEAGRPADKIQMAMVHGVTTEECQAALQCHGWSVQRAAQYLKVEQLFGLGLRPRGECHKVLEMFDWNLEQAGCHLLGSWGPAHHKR
Summary of the method: as §1

[4] = biological target: panel of human kinases (kinase named in endpoint) (Homo sapiens, UniProt Q13131); settings: 10 µM; read-out: Activity (%), AMPKα1(h)
Summary of the method: as §1

[5] = biological target: panel of human kinases (kinase named in endpoint) (Homo sapiens, UniProt O00506); settings: 10 µM; read-out: Activity (%), STK25(h)
Sequence of panel of human kinases (kinase named in endpoint) (Homo sapiens, UniProt O00506) (O00506 whole entry): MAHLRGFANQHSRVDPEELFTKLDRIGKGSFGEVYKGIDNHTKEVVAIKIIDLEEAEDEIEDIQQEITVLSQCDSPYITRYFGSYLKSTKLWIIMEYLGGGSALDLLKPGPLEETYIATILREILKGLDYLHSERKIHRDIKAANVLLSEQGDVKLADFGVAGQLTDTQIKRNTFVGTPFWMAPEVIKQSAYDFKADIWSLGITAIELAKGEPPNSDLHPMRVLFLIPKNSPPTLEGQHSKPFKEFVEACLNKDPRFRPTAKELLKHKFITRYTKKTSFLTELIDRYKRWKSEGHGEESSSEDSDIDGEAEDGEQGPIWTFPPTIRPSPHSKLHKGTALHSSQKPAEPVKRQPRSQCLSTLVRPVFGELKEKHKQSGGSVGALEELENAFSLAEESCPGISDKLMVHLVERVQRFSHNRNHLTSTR
Summary of the method: as §1

[6] = biological target: panel of human kinases (kinase named in endpoint) (Homo sapiens, UniProt P25098); settings: 10 µM; read-out: Activity (%), GRK2(h)
Summary of the method: as §1

[7] = biological target: panel of human kinases (kinase named in endpoint) (Homo sapiens, UniProt P22694); settings: 10 µM; read-out: Activity (%), PKAcβ(h)
Summary of the method: as §1

[8] = biological target: panel of human kinases (kinase named in endpoint) (Homo sapiens, UniProt O75582); settings: 10 µM; read-out: Activity (%), MSK1(h)
Summary of the method: as §1

[9] = biological target: panel of human kinases (kinase named in endpoint) (Homo sapiens, UniProt Q9H2G2); settings: 10 µM; read-out: Activity (%), SLK(h)
Sequence of panel of human kinases (kinase named in endpoint) (Homo sapiens, UniProt Q9H2G2) (Q9H2G2 whole entry): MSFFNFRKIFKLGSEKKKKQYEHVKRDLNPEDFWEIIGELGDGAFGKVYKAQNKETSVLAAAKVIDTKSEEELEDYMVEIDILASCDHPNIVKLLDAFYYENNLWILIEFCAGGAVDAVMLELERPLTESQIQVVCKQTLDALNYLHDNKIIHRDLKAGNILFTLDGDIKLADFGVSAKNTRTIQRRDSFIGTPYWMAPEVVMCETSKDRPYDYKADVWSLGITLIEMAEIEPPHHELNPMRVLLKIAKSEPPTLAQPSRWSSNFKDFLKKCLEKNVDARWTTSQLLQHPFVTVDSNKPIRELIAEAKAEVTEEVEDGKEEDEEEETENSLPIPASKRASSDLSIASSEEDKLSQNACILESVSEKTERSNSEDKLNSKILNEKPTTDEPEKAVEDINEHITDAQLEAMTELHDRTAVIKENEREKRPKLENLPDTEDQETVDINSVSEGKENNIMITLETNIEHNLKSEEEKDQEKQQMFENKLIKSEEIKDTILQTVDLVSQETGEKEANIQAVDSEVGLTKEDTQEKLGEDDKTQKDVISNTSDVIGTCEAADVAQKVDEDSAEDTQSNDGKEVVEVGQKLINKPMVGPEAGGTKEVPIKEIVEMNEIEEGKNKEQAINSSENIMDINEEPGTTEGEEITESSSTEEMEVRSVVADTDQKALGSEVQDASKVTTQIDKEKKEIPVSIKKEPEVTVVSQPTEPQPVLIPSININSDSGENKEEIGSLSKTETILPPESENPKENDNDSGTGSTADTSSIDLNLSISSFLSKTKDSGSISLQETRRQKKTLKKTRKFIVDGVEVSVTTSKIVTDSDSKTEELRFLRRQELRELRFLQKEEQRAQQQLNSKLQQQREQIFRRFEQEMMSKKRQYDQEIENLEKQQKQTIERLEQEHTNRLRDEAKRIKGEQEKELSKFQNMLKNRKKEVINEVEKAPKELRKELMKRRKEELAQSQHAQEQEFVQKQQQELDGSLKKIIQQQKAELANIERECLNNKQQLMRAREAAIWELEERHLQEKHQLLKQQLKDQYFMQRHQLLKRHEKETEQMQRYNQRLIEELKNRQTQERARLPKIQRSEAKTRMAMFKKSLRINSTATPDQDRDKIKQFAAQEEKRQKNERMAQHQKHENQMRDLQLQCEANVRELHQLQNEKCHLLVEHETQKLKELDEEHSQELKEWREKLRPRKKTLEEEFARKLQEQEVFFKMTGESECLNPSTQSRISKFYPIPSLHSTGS
Summary of the method: as §1

[10] = biological target: panel of human kinases (kinase named in endpoint) (Homo sapiens, UniProt Q96BR1); settings: 10 µM; read-out: Activity (%), SGK3(h)
Sequence of panel of human kinases (kinase named in endpoint) (Homo sapiens, UniProt Q96BR1) (Q96BR1 whole entry): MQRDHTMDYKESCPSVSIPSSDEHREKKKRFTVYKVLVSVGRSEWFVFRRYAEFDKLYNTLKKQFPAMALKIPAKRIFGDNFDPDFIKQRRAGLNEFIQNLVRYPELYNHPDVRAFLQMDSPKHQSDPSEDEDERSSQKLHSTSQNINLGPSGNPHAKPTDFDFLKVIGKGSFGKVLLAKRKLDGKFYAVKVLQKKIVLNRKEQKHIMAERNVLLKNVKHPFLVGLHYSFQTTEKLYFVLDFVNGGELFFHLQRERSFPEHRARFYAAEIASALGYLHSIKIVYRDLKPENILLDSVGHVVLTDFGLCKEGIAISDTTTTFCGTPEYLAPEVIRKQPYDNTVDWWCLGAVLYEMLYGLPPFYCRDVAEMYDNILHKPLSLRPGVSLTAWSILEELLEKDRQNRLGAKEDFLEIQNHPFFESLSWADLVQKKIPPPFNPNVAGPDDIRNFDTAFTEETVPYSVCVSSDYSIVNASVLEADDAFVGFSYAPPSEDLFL
Summary of the method: as §1

[11] = biological target: panel of human kinases (kinase named in endpoint) (Homo sapiens, UniProt Q00526); settings: 10 µM; read-out: Activity (%), CDK3/cyclinE(h)
Sequence of panel of human kinases (kinase named in endpoint) (Homo sapiens, UniProt Q00526) (Q00526 whole entry): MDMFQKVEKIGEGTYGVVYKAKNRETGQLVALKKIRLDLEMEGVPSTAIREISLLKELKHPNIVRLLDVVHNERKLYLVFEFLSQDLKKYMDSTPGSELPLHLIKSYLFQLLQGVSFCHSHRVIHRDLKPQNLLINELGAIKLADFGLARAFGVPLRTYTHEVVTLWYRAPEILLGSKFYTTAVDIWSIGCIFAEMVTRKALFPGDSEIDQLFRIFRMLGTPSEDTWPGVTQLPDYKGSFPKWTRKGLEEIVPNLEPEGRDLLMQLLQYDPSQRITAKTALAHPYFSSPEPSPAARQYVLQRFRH
Summary of the method: as §1

[12] = biological target: panel of human kinases (kinase named in endpoint) (Homo sapiens, UniProt Q8IWQ3); settings: 10 µM; read-out: Activity (%), BrSK2(h)
Sequence of panel of human kinases (kinase named in endpoint) (Homo sapiens, UniProt Q8IWQ3) (Q8IWQ3 whole entry): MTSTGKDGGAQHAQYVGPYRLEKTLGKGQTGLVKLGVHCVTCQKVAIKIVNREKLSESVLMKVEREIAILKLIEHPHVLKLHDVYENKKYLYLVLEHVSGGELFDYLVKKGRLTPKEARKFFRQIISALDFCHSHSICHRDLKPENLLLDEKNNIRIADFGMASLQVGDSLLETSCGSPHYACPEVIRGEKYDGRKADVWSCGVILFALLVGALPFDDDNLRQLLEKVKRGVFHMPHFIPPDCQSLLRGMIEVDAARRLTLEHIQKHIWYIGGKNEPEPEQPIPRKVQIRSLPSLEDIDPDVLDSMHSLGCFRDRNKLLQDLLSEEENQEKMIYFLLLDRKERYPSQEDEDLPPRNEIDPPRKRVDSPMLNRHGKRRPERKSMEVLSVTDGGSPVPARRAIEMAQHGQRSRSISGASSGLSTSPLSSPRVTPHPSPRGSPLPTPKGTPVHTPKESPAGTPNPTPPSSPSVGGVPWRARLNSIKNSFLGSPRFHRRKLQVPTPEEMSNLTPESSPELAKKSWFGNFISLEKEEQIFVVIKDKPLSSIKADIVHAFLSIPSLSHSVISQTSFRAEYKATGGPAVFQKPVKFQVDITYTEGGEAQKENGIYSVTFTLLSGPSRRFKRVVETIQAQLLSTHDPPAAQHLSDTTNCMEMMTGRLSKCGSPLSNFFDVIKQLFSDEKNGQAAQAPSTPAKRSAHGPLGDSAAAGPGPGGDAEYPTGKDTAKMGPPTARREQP
Summary of the method: as §1

[13] = biological target: panel of human kinases (kinase named in endpoint) (Homo sapiens, UniProt Q9H0K1); settings: 10 µM; read-out: Activity (%), SIK2(h)
Summary of the method: as §1

[14] = biological target: panel of human kinases (kinase named in endpoint) (Homo sapiens, UniProt Q9H2X6); settings: 10 µM; read-out: Activity (%), HIPK2(h)
Summary of the method: as §1

[15] = biological target: panel of human kinases (kinase named in endpoint) (Homo sapiens, UniProt P43250); settings: 10 µM; read-out: Activity (%), GRK6(h)
Summary of the method: as §1

[16] = biological target: panel of human kinases (kinase named in endpoint) (Homo sapiens, UniProt Q9Y3S1); settings: 10 µM; read-out: Activity (%), WNK2(h)
Summary of the method: as §1

[17] = biological target: panel of human kinases (kinase named in endpoint) (Homo sapiens, UniProt O43318); settings: 10 µM; read-out: Activity (%), TAK1(h)
Summary of the method: as §1

[18] = biological target: panel of human kinases (kinase named in endpoint) (Homo sapiens, UniProt P14616); settings: 10 µM; read-out: Activity (%), IRR(h)
Summary of the method: as §1

[19] = biological target: panel of human kinases (kinase named in endpoint) (Homo sapiens, UniProt P42685); settings: 10 µM; read-out: Activity (%), PTK5(h)
Summary of the method: as §1

[20] = biological target: panel of human kinases (kinase named in endpoint) (Homo sapiens, UniProt Q9H2K8); settings: 10 µM; read-out: Activity (%), TAO3(h)
Summary of the method: as §1

[21] = biological target: panel of human kinases (kinase named in endpoint) (Homo sapiens, UniProt Q13627); settings: 10 µM; read-out: Activity (%), DYRK1A(h)
Summary of the method: as §1

[22] = biological target: panel of human kinases (kinase named in endpoint) (Homo sapiens, UniProt P48730); settings: 10 µM; read-out: Activity (%), CK1δ(h)
Sequence of panel of human kinases (kinase named in endpoint) (Homo sapiens, UniProt P48730) (P48730 whole entry): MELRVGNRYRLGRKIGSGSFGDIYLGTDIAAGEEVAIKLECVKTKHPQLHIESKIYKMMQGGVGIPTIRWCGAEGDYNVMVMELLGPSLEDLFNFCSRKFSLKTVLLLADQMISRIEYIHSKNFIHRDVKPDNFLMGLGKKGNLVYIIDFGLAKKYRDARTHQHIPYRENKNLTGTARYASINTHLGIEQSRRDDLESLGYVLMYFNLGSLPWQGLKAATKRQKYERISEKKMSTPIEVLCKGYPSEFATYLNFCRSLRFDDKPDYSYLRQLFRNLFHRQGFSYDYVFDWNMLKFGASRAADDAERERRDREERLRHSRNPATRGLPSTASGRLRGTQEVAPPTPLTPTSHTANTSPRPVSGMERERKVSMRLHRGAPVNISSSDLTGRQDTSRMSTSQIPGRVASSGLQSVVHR
Summary of the method: as §1

[23] = biological target: panel of human kinases (kinase named in endpoint) (Homo sapiens, UniProt P30530); settings: 10 µM; read-out: Activity (%), Axl(h)
Summary of the method: as §1

[24] = biological target: panel of human kinases (kinase named in endpoint) (Homo sapiens, UniProt Q9Y463); settings: 10 µM; read-out: Activity (%), DYRK1B(h)
Summary of the method: as §1

Q: `CC(C)C(=O)Nc1nc2cc(-c3ccc4c(c3)c(C(=O)NC(C)c3ccccc3)cn4C)ccn2n1` (stereo not drawn) [RI-962] was tested. Which activity at 10 µM [1] did it give?
A: 142%

Q: What about the activity at 10 µM [2] of the same compound?
A: 55%

Q: And the activity at 10 µM [3]?
A: 100%

Q: And the activity at 10 µM [4]?
A: 93%

Q: And the activity at 10 µM [5]?
A: 81%

Q: What about the activity at 10 µM [6] of the same compound?
A: 86%

Q: And the activity at 10 µM [7]?
A: 117%

Q: What about the activity at 10 µM [8] of the same compound?
A: 112%

Q: What about the activity at 10 µM [9] of the same compound?
A: 84%

Q: What about the activity at 10 µM [10] of the same compound?
A: 132%

Q: And the activity at 10 µM [11]?
A: 119%

Q: And the activity at 10 µM [12]?
A: 110%

Q: What about the activity at 10 µM [13] of the same compound?
A: 101%

Q: And the activity at 10 µM [14]?
A: 72%

Q: And the activity at 10 µM [15]?
A: 108%

Q: What about the activity at 10 µM [16] of the same compound?
A: 79%

Q: What about the activity at 10 µM [17] of the same compound?
A: 90%

Q: What about the activity at 10 µM [18] of the same compound?
A: 100%

Q: And the activity at 10 µM [19]?
A: 104%

Q: And the activity at 10 µM [20]?
A: 86%

Q: And the activity at 10 µM [21]?
A: 96%

Q: And the activity at 10 µM [22]?
A: 108%

Q: What about the activity at 10 µM [23] of the same compound?
A: 110%

Q: What about the activity at 10 µM [24] of the same compound?
A: 100%
